Laboratory results as given in ChEMBL document CHEMBL1201862, “PubChem BioAssay data set” (2004).
Active and inactive are the calls of the source.

Columns and labels:
[1] = Luminescence Cell-Based Dose Response to Identify Activators of Luciferase Translation or Activity in H4-C Neuroglioblastoma Cells. [Related pubchem assays: 1829 (Project Summary), 1814 (Primary HTS)]; format: functional
[2] = Luminescence Cell-Based Dose Confirmation to Identify Activators of 5'UTR Stem-Loop Driven Alpha-Synuclein mRNA Translation in H4 Neuroglioblastoma Cells. [Related pubchem assays: 1829 (Project Summary), 1814 (Primary HTS)]; format: functional
[3] = Luminescence Cell-Based Dose Response HTS to Identify Activators of Luciferase Translation or Activity in H4 […] Cells. [Related pubchem assays: 1829 (Project Summary), 1814 (Primary HTS)]; format: functional
[4] = Luminescence Cell-Based Dose Response to Identify Activators of 5'UTR Stem-Loop Driven Prion Protein mRNA Translation in H4-C Neuroglioblastoma Cells. [Related pubchem assays: 1829 (Project Summary), 1814 (Primary HTS)]; format: functional
Cytochrome P450 3A4 = Cytochrome P450 3A4 (Homo sapiens, UniProt P08684); settings: Potency;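 further: confirmatory qHTS run detecting inhibitors and substrates of CYP3A4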
[5] = LGR2 antagonists, dose response, cell-based, HEK293, CRE-luciferase reporter, cherry pick, set 2 (AID 743343); format: functional;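 further: transfected cells were stimulated with diluted bursicon conditioned medium after compound addition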
[6] = A549 cell cytotoxicity, dose response, cytotoxicity control, plate reader, cherry-pick, antagonist series (AID 743412); format: functional, cell-based
[7] = MC4R antagonists, dose response, counter-screen for LGR2 antagonist project, cell-based, plate reader, cherry pick (AID 743444); format: functional;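 further: transfected HEK 293 cells stimulated with alpha-MSH peptide; potency of inhibitors of the alpha-MSH evoked signal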
Kallikrein-7 = Kallikrein-7 (Homo sapiens, UniProt P49862); assay: Fluorescence Intensity-based biochemical primary high throughput dose response assay to identify activators of kallikrein-7 (K7) zymogen.
[8] = HEK293 Cytotoxicity Assay Measured in Cell-Based System Using Plate Reader - 7071-01_Inhibitor_Dose_CherryPick_Activity_Set2.; format: functional
HEK293 = assay: HEK293T cell cytotoxicity, dose response, cytotoxicity control, ATP luminescence, cherry-pick samples (AID 687005); format: functional, cell-based; settings: Homo sapiens;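 further: cells exposed to compound for 48 hours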
[9] = NIH:OVCAR-3 ovarian cancer cell cytotoxicity, dose response, PAX8 inhibitor project, plate reader, dry powder samples (AID 743044); format: functional, cell-based
[10] = inhibitors of clade B AD8 Env fusion, dose response, cell-based, cherry-pick (AID 652062); format: functional;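 further: luciferase signal from cell-cell fusion driven by HIV-1 clade B AD8 Env; potency is for inhibitors of fusion seen as a drop in luminescence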
[11] = inhibitors of HIV Env-driven cell fusion, dose response, cherry-pick (AID 652057); format: functional, cell-based
Paired box protein Pax-8 = Paired box protein Pax-8 (Homo sapiens, UniProt Q06710); assay: inhibitors of PAX8-driven TPO luciferase reporter, dose response, RMG-I cells, cherry-pick (AID 687027); format: functional, cell-based;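 further: luciferase reporter driven by Pax8 target thyroperoxidase promoter measured by SteadyGlo luminescence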
[12] = cytotoxicity in OVCAR8 ovarian cancer cells, dose response, PAX8 project, cell-based, plate reader, dry powder samples (AID 743197); format: functional; settings: OVCAR-8
Cytochrome P450 2C9 = Cytochrome P450 2C9 (Homo sapiens, UniProt P11712)
Cytochrome P450 2D6 = Cytochrome P450 2D6 (Homo sapiens, UniProt P10635);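 further: CYP2D6 member of a cytochrome P450 panel assay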
[13] = target: Disintegrin and metalloproteinase domain-containing protein 17 (Homo sapiens, UniProt P78536); assay: ADAM17 protease inhibitors, dose response, counter-screen for ADAM10 exosite inhibitor project, biochemical, quenched FRET substrate (AID 743253)
Chain of Disintegrin and metalloproteinase domain-containing protein 17 (P78536 whole entry, the tested form may be a part): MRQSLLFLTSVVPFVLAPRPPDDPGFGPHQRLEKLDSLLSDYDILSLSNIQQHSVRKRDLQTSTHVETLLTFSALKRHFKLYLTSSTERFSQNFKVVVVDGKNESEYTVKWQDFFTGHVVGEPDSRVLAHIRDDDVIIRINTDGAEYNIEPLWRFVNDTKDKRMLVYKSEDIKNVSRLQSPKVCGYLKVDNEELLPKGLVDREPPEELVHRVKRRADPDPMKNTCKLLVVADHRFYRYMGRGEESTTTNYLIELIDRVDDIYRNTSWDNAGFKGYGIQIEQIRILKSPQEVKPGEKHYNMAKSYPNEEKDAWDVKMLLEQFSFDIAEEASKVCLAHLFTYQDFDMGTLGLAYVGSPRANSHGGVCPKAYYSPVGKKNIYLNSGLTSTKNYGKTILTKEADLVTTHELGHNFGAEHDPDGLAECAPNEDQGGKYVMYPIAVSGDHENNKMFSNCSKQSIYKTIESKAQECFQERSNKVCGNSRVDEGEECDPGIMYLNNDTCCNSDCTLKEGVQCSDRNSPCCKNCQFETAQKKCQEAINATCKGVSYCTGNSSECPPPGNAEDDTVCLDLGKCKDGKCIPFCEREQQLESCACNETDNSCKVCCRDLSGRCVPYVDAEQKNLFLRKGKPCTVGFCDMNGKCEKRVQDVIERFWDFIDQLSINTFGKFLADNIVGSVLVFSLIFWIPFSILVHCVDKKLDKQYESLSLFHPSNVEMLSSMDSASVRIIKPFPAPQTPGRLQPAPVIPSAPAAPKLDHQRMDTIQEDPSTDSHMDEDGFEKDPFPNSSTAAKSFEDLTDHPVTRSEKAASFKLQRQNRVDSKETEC

Chain of Paired box protein Pax-8 (Q06710 whole entry): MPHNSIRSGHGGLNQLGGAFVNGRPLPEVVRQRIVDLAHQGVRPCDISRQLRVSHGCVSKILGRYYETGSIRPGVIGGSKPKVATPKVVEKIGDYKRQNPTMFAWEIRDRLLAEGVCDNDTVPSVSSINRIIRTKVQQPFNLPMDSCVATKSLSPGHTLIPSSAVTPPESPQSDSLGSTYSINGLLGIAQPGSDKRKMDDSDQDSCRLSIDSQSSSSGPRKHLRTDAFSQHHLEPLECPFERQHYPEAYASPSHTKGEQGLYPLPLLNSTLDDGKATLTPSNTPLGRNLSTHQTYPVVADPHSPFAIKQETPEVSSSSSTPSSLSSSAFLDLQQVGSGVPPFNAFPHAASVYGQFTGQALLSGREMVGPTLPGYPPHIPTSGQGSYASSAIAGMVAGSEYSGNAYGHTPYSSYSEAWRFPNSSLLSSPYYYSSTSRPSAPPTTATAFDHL
Chain of Cytochrome P450 3A4 (P08684 whole entry): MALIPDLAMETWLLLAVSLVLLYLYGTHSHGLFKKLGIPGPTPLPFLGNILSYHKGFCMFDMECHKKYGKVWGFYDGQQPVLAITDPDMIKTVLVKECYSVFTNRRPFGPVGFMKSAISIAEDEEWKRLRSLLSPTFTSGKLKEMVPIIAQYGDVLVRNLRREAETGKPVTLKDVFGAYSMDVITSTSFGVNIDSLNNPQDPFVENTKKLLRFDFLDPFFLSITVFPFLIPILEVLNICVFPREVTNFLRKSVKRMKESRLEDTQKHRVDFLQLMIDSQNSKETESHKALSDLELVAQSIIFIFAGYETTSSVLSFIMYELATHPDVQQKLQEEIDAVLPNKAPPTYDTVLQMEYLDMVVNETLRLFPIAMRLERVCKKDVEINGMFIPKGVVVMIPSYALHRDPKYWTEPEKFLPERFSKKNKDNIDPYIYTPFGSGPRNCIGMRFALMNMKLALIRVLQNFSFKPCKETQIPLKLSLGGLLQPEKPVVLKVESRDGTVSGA
Chain of Kallikrein-7 (P49862 whole entry): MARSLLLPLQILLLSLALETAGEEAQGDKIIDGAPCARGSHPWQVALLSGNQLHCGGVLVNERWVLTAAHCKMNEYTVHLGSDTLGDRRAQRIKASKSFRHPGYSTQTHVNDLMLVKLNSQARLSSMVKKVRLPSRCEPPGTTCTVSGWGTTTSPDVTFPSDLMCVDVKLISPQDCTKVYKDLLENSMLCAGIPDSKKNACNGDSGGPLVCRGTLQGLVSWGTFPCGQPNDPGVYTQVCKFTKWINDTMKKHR
Chain of Cytochrome P450 2D6 (P10635 whole entry, the tested form may be a part): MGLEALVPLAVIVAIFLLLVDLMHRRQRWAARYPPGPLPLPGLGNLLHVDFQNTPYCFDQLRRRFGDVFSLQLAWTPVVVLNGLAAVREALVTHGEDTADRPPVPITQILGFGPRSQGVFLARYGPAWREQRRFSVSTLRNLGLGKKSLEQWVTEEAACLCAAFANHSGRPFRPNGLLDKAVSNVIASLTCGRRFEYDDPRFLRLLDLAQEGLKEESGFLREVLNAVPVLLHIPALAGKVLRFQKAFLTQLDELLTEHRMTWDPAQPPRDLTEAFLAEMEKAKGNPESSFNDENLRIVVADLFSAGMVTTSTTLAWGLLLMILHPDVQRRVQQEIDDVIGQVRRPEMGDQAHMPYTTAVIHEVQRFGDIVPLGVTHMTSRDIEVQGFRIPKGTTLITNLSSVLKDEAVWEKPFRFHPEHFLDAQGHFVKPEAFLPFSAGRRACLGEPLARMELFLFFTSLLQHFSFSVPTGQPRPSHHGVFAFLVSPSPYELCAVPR
Chain of Cytochrome P450 2C9 (P11712 whole entry): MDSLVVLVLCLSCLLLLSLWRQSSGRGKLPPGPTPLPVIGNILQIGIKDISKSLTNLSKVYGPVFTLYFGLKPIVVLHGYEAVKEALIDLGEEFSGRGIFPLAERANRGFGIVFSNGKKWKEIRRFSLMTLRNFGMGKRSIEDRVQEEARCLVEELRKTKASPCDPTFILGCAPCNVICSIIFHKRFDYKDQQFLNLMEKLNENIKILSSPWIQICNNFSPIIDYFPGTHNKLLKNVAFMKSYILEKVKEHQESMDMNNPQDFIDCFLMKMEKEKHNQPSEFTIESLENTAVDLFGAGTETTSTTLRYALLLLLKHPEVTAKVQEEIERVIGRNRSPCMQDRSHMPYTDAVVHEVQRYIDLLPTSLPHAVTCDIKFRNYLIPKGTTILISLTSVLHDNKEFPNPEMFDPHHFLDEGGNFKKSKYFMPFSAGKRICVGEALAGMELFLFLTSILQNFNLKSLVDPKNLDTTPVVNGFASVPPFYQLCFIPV

Compound: CC1(C)CC(=O)c2cnc(N3CCc4ccccc4C3)nc2C1
- EC50 [1]: 0.268 µM (active)
- EC50 [2]: 0.283 µM (active)
- EC50 [3]: < 0.1 µM (inconclusive)
- EC50 [4]: 0.284 µM (active)

Compound: COc1cc2c(cc1OC)-c1c(OC)c(OC)c(C=O)c3c1[C@H](C2)N(C)CC3
- AC50 (Cytochrome P450 3A4): 7.94 µM (inconclusive)

Compound: Cc1ccccc1C(=O)Nc1ccc2c(c1)OCCO2
- AC50 [5]: 10.5 µM (active)
- AC50 [6]: > 52 µM (inactive)
- AC50 [7]: 11.1 µM (active)

Compound: CCN(CC)CCCn1c(-c2ccccc2)nc2c(N(CCOC)CCOC)nc(C)nc21
- AC50 (Cytochrome P450 3A4): 20 µM (inconclusive)

Compound: C[C@H](O)[C@@H]1C(=O)N2CCc3c([nH]c4ccccc34)[C@@H]2C[C@@H]1N(C)C(=O)c1cc(Cl)cc(Cl)c1
- EC50 (Kallikrein-7): > 23.2 µM (inactive)

Compound: CNc1cncc(-c2ccc(OC)cc2)n1
- EC50 (Kallikrein-7): > 69.5 µM (inactive)

Compound: COCCNC(=O)C[C@@H]1CC[C@H]2[C@@H](COC[C@H](O)CN2Cc2cccc(-c3ccncc3)c2)O1
- AC50 [8]: 32.6 µM (active)
- AC50 (HEK293): 32.6 µM (active)

Compound: C[C@H]1CCCCO[C@H](CN(C)Cc2ccncc2)[C@@H](C)CN([C@@H](C)CO)C(=O)c2cc(NC(=O)CCCN(C)C)ccc2O1
- AC50 [8]: 38.1 µM (active)
- AC50 (HEK293): 38.1 µM (active)

Compound: C[C@@H]1CN([C@@H](C)CO)S(=O)(=O)c2ccc(C3=CCCC3)cc2O[C@@H]1CN(C)Cc1ccccc1F
- AC50 [8]: 23.9 µM (active)
- AC50 (HEK293): 23.9 µM (active)

Compound: O=C(Nc1ccc(C(F)(F)F)cc1)Nc1ccc2c(c1)[C@@H]1C[C@H](CC(=O)N3CCc4ccccc4C3)O[C@H](CO)[C@@H]1O2
- AC50 [9]: 34.4 µM (active)
- AC50 [10]: 18.5 µM (active)
- AC50 [11]: 14.2 µM (active)
- AC50 (Paired box protein Pax-8): 9.5 µM (active)
- AC50 [12]: 48.6 µM (active)

Compound: O=C(C[C@H]1CC[C@@H]2[C@H](COC[C@@H](O)CN2S(=O)(=O)c2cccc(Cl)c2)O1)Nc1ccc(-c2ccccc2)cc1
- AC50 (Paired box protein Pax-8): 8.33 µM (active)
- AC50 [12]: > 70 µM (inactive)

Compound: COc1cc(/C=N/O)cc(Br)c1OCc1ccc(Cl)cc1
- AC50 (Cytochrome P450 2C9): inconclusive
- AC50 (Cytochrome P450 2D6): 17.8 µM (inconclusive)
- IC50 [13]: > 69.5 µM (inactive)

Compound: CCCCN1CCCCC1C(=O)Nc1c(C)cccc1C (centres undefined) [BUPIVACAINE]
- AC50 [8]: 35.7 µM (active)
- AC50 (HEK293): 35.7 µM (active)
